Assay results from patent US20100216120A1, “Rapid infectious virus assay” (priority 2009, published 2010).

Key:
[1] = tested on: infectious HIV from monocytes; test: ATP-triggered release of infectious virus from CD8-depleted PBMC monocytes, TZM reporter cell luciferase readout, no fibronectin coating; type: cell-based, Human Immunodeficiency Virus (HIV); conditions: ATP 1-5 mM, absence of fibronectin coating, 200 k CD8-depleted PBMCs, 3 days; HIV-positive vs negative individuals
Description: ATP (1 mM) was then added in a volume of 100 ul for a 3 hrs at 37° C. TZMs (10K) were then added on to the wells in 100 ul in RPMI 10%. After 3 days later, the supernatants were removed and steady-glo reagent was added on to the TZMs and read on a Spectramax.
The inventors tested the ability of ATP (1-5 mM) to release infectious virus from monocytes in absence of fibronectin coating on to the tissue culture wells. […] Further differentiation and/or activation is useful to enhance virus release.

[2] = tested on: infectious HIV from monocytes; test: Rapid Infectious Viral Assay (RIVA): virus release from monocytes on fibronectin-coated wells, TZM-bl reporter cell luciferase readout; type: cell-based, Human Immunodeficiency Virus (HIV); conditions: ATP 1 mM
Description: The plates were then coated with fibronectin and BSA. 150 k CD8-depleted PBMCs were added on to a 96-well for 3 hrs followed by washings using RPMI 10%. ATP (1 mM) was then added in a volume of 100 ul for a 3 hrs at 37° C. TZMs (15K) were then added on to the wells the next day. 5 days later after launch, the supernatants were removed and steady-glo reagent was added on to the TZMs and read on a Spectramax.
ATP (1 mM) was then added in a volume of 100 ul for a 3 hrs at 37° C. TZMs (10K) were then added on to the wells. 4 days later after launch, the supernatants were removed and steady-glo reagent was added on to the TZMs and read on a Spectramax.
ATP (1 mM) was then added in a volume of 100 ul for a 3 hrs at 37° C. TZMs (10K) were then added on to the wells. 3 days later after launch, the supernatants were removed and steady-glo reagent was added on to the TZMs and read on a Spectramax.
ATP (1 mM) was then added in a volume of 100 ul for a 3 hrs at 37° C. TZMs (20K) were then added on to the wells. 3 days later after launch, the supernatants were removed and steady-glo reagent was added on to the TZMs and read on a Spectramax.
In a preferred embodiment, CD8-depleted PBMC were isolated from HIV-negative donors and HIV patients with VL<50 copies/ml using Dynal beads. Peripheral monocytes (CD14) were used in a rapid infectious assay using TZM-bl coculture technique. The inventors compare this shorter infection assay to classical method of PBMC activation with anti CD3/CD28 antibodies. Major CCR5 blockers were addressed. Presence of infectious virus was also investigated using FACS and rtPCR.
FIG. 2 illustrates a test of the ability of ATP (1 mM) to release infectious virus from monocytes in presence of fibronectin coating on to the tissue culture wells. The HIV infectivity was measured by measuring the RLU on a Spectramax M5 plate readert.
1. A 96 well plate (a 48 well can be used) is coated with 100 ul RPMI containing fibronectin (50 ug/ml) in BSA (0.5%) for 30 minutes at room temperature.
2. CD8-depleted PBMC's which have been frozen at 2 million cells per ml and stored at −80 C in 22% FBS and 10% DMSO are thawed quickly and about 100 ul containing 200 k cells are added to the wells immediately
3. Let cells of interest attach for 2 hours (longer even overnight up to 20 hrs can be used)
4. Remove all the media which contains non-adherent cells and wash with 200 ul of RPMI with 10% FBS, pipetting gently, removing this wash media. The adherent monocytes remain.
5. […]
7. Finally quantitate how much viral infection has occurred by reading luciferase production using Steady Glow reagent (Promega) and a luminometer/spectrophotometer. […]

## Nc1ncnc2c1ncn2[C@@H]1O[C@H](COP(=O)(O)OP(=O)(O)OP(=O)(O)O)[C@@H](O)[C@H]1O [ATP]
[1]
  release of infectious virus from monocytes (RLU on TZMs): incapable of triggering release of viral particles from monocytes
[2]; fibronectin and BSA coating, 100 k CD8-depleted PBMCs O/N, 3-day assay (Format #3)
  release of infectious virus from monocytes (RLU on TZMs): triggers the release of the virus
[2]; fibronectin and BSA coating, 100 k CD8-depleted PBMCs O/N, 4-day assay (Format #2)
  release of infectious virus from monocytes (RLU on TZMs): triggers the release of the virus
[2]; fibronectin and BSA coating, 225 k cells, 48-well, 4-day assay (Format #4)
  release of infectious virus from monocytes (RLU on TZMs): triggers the release of the virus
[2]; fibronectin coating, 150 k CD8-depleted PBMCs, 5 day assay (Format #1)
  release of infectious virus from monocytes (RLU on TZMs): capable of triggering release of viral particles from monocytes
